Tests used:
Staphylococcus aureus [1] = assay: Antibacterial activity against methicillin-resistant Staphylococcus aureus NCTC10442 assessed as reduction in bacterial growth incubated for 22 to 24 hrs in presence of MgCl2 by CLSI based broth microdilution method; assay type: functional; conditions: time 22-24 hrs
[2] = Cytotoxicity against HEK293 cells assessed as viable cells at 12.5 ug/ml incubated for 24 hrs by CCK-8 assay relative to control; assay type: toxicity, cell-based; conditions: human, at 12.5 µg/mL, read-out: Activity
Escherichia coli [3] = assay: Antibacterial activity against Escherichia coli ATCC25922 assessed as reduction in microbial growth incubated for 22 to 24 hrs by CLSI based broth microdilution method; assay type: functional; conditions: time 22-24 hrs
Acinetobacter baumannii [4] = assay: Synergistic […] activity against Acinetobacter baumannii ATCC17978 assessed as fractional inhibitory concentration index incubated for 22 to 24 hrs in presence of amikacin by CLSI based broth microdilution method; assay type: functional; conditions: time 22-24 hrs
Staphylococcus aureus [5] = assay: Antibacterial activity against Staphylococcus aureus ATCC29213 infected in C57BL6 mouse corneal infection model assessed as log reduction in CFU at 0.5 % administered topically on corneas for four times in 3 days by MHA plate counting method; assay type: functional; conditions: route top, time 3 day
Staphylococcus aureus [6] = assay: Antibacterial activity against methicillin-resistant Staphylococcus aureus NCTC10442 assessed as reduction in bacterial growth incubated for 22 to 24 hrs in presence of FeCl3 by CLSI based broth microdilution method; assay type: functional; conditions: time 22-24 hrs
[7] = Cytotoxicity against mouse NCTC clone 929 cells assessed as viable cells at 3.125 ug/ml incubated for 24 hrs by CCK-8 assay relative to control; assay type: toxicity, cell-based; conditions: NCTC clone 929 (L929) cells, at 3.125 µg/mL, read-out: Activity
Klebsiella pneumoniae [8] = assay: Synergistic […] activity against Klebsiella pneumoniae ATCC10031 assessed as fractional inhibitory concentration index incubated for 22 to 24 hrs in presence of tobramycin by CLSI based broth microdilution method; assay type: functional; conditions: time 22-24 hrs
Staphylococcus aureus [9] = assay: Antibacterial activity against Staphylococcus aureus ATCC29213 assessed as reduction in bacterial growth incubated for 22 to 24 hrs in presence of ZnSO4.7H2O by CLSI based broth microdilution method; assay type: functional; conditions: time 22-24 hrs
Staphylococcus aureus [10] = assay: Antibacterial activity against Staphylococcus aureus ATCC29213 assessed as reduction in bacterial growth incubated for 22 to 24 hrs in presence of FeCl2 by CLSI based broth microdilution method; assay type: functional; conditions: time 22-24 hrs
Staphylococcus aureus [11] = assay: Induction of membrane permeabilization in Staphylococcus aureus ATCC29213 assessed as increase in fluorescence intensity measured upto 60 mins by SYTOX green assay; assay type: functional, organism-based
Acinetobacter baumannii [12] = assay: Synergistic […] activity against Acinetobacter baumannii ATCC17978 assessed as fractional inhibitory concentration index incubated for 22 to 24 hrs in presence of levofloxacin by CLSI based broth microdilution method; assay type: functional; conditions: time 22-24 hrs
Staphylococcus aureus [13] = assay: Synergistic […] activity against Staphylococcus aureus ATCC29213 assessed as fractional inhibitory concentration index incubated for 22 to 24 hrs in presence of vancomycin by CLSI based broth microdilution method; assay type: functional; conditions: time 22-24 hrs
Staphylococcus aureus [14] = assay: Synergistic […] activity against Staphylococcus aureus ATCC29213 assessed as fractional inhibitory concentration index incubated for 22 to 24 hrs in presence of linezolid by CLSI based broth microdilution method; assay type: functional; conditions: time 22-24 hrs
Staphylococcus aureus [15] = assay: Induction of membrane permeabilization in methicillin-resistant Staphylococcus aureus NCTC10442 assessed as increase in fluorescence intensity measured upto 60 mins by SYTOX green assay; assay type: functional, organism-based
[16] = Cytotoxicity against mouse NCTC clone 929 cells assessed as viable cells at 100 ug/ml incubated for 24 hrs by CCK-8 assay relative to control; assay type: toxicity, cell-based; conditions: NCTC clone 929 (L929) cells, at 100 µg/mL, read-out: Activity
Staphylococcus aureus [17] = assay: Synergistic […] activity against methicillin-resistant Staphylococcus aureus NCTC10442 assessed as fractional inhibitory concentration index incubated for 22 to 24 hrs in presence of vancomycin by CLSI based broth microdilution method; assay type: functional; conditions: time 22-24 hrs
[18] = Cytotoxicity against HEK293 cells assessed as viable cells at 50 ug/ml incubated for 24 hrs by CCK-8 assay relative to control; assay type: toxicity, cell-based; conditions: human, at 50 µg/mL, read-out: Activity
Staphylococcus aureus [19] = assay: Antibacterial activity against methicillin-resistant Staphylococcus aureus N315 assessed as reduction in bacterial growth incubated for 22 to 24 hrs in presence of FeCl3 by CLSI based broth microdilution method; assay type: functional; conditions: time 22-24 hrs
Klebsiella pneumoniae [20] = assay: Antibacterial activity against Klebsiella pneumoniae ATCC10031 assessed as reduction in microbial growth incubated for 22 to 24 hrs by CLSI based broth microdilution method; assay type: functional; conditions: time 22-24 hrs
Klebsiella pneumoniae [21] = assay: Synergistic […] activity against Klebsiella pneumoniae ATCC10031 assessed as fractional inhibitory concentration index incubated for 22 to 24 hrs in presence of amikacin by CLSI based broth microdilution method; assay type: functional; conditions: time 22-24 hrs
[22] = Cytotoxicity against mouse NCTC clone 929 cells assessed as viable cells at 6.25 ug/ml incubated for 24 hrs by CCK-8 assay relative to control; assay type: toxicity, cell-based; conditions: NCTC clone 929 (L929) cells, at 6.25 µg/mL, read-out: Activity
[23] = Cytotoxicity against HEK293 cells assessed as viable cells at 6.25 ug/ml incubated for 24 hrs by CCK-8 assay relative to control; assay type: toxicity, cell-based; conditions: human, at 6.25 µg/mL, read-out: Activity
Staphylococcus aureus [24] = assay: Antibacterial activity against Staphylococcus aureus ATCC29213 assessed as reduction in bacterial growth incubated for 22 to 24 hrs in presence of CaCl2 by CLSI based broth microdilution method; assay type: functional; conditions: time 22-24 hrs
Klebsiella pneumoniae [25] = assay: Synergistic […] activity against Klebsiella pneumoniae ATCC10031 assessed as fractional inhibitory concentration index incubated for 22 to 24 hrs in presence of gentamicin by CLSI based broth microdilution method; assay type: functional; conditions: time 22-24 hrs
Staphylococcus aureus [26] = assay: Drug resistance, ratio of MIC for Staphylococcus aureus ATCC29213 after 20 passages to MIC for Staphylococcus aureus ATCC29213 after initial exposure; assay type: functional
Staphylococcus aureus [27] = assay: Antibacterial activity against Staphylococcus aureus ATCC29213 assessed as reduction in bacterial growth incubated for 22 to 24 hrs in presence of NaCl by CLSI based broth microdilution method; assay type: functional; conditions: time 22-24 hrs
Staphylococcus aureus [28] = assay: Bactericidal activity against methicillin-resistant Staphylococcus aureus NCTC10442 assessed as cell killing at 8 times of MIC measured with in 1 hr by time kill assay relative to control; assay type: functional
Staphylococcus aureus [29] = assay: Antibacterial activity against Staphylococcus aureus ATCC29213 infected in C57BL6 mouse corneal infection model assessed as bacterial killing at 0.5 % administered topically on corneas for four times in 3 days by MHA plate counting method relative to control; assay type: functional; conditions: route top, time 3 day
Acinetobacter baumannii [30] = assay: Antibacterial activity against Acinetobacter baumannii ATCC17978 assessed as reduction in microbial growth incubated for 22 to 24 hrs by CLSI based broth microdilution method; assay type: functional; conditions: time 22-24 hrs
Escherichia coli [31] = assay: Induction of outer membrane permeabilization in Escherichia coli ATCC25922 assessed as increase in fluorescence intensity measured upto 1 hr by NPN uptake assay; assay type: functional, organism-based
Staphylococcus aureus [32] = assay: Antibacterial activity against methicillin-resistant Staphylococcus aureus NCTC10442 assessed as reduction in bacterial growth incubated for 22 to 24 hrs in presence of KCl by CLSI based broth microdilution method; assay type: functional; conditions: time 22-24 hrs
[33] = Cytotoxicity against HEK293 cells assessed as viable cells at 3.125 ug/ml incubated for 24 hrs by CCK-8 assay relative to control; assay type: toxicity, cell-based; conditions: human, at 3.125 µg/mL, read-out: Activity

COC(=O)[C@H](CCCNC(=N)N)NC(=O)[C@H](CCCNC(=N)N)NC(=O)COc1ccc(S(=O)(=O)c2ccc(OC/C=C(/C)CCC=C(C)C)cc2)cc1
MIC (Staphylococcus aureus [1]): 1.56 µg/mL
viability at 24 h, 12.5 ug/ml [2]: 94.2%
MIC (Escherichia coli [3]): 6.25 µg/mL
fractional inhibitory concentration index (FICI) (Acinetobacter baumannii [4]): 0.28
log(activity) (Staphylococcus aureus [5]): 6.9
MIC (Staphylococcus aureus [6]): 1.56 µg/mL
viability at 24 h, 3.125 ug/ml [7]: 92.6%
fractional inhibitory concentration index (FICI) (Klebsiella pneumoniae [8]): 0.375
MIC (Staphylococcus aureus [9]): 1.56 µg/mL
MIC (Staphylococcus aureus [10]): 1.56 µg/mL
Activity (Staphylococcus aureus [11]): Dose-Dependent Effect
fractional inhibitory concentration index (FICI) (Acinetobacter baumannii [12]): 0.25
fractional inhibitory concentration index (FICI) (Staphylococcus aureus [13]): 0.5
fractional inhibitory concentration index (FICI) (Staphylococcus aureus [14]): 0.28
Activity (Staphylococcus aureus [15]): Dose-Dependent Effect
viability at 24 h, 100 ug/ml [16]: 74%
fractional inhibitory concentration index (FICI) (Staphylococcus aureus [17]): 0.5
viability at 24 h, 50 ug/ml [18]: 91.5%
MIC (Staphylococcus aureus [19]): 1.56 µg/mL
MIC (Klebsiella pneumoniae [20]): 6.25 µg/mL
fractional inhibitory concentration index (FICI) (Klebsiella pneumoniae [21]): 0.31
viability at 24 h, 6.25 ug/ml [22]: 91.5%
viability at 24 h, 6.25 ug/ml [23]: 96.1%
MIC (Staphylococcus aureus [24]): 3.12 µg/mL
fractional inhibitory concentration index (FICI) (Klebsiella pneumoniae [25]): 0.5
Ratio (Staphylococcus aureus [26]): 4
MIC (Staphylococcus aureus [27]): 1.56 µg/mL
Activity (Staphylococcus aureus [28]): 99.99%
Activity (Staphylococcus aureus [29]): 99.99%
MIC (Acinetobacter baumannii [30]): 12.5 µg/mL
Activity (Escherichia coli [31]): Dose-Dependent Effect
MIC (Staphylococcus aureus [32]): 1.56 µg/mL
viability at 24 h, 3.125 ug/ml [33]: 102%

— ChEMBL document CHEMBL5584236, “Development of novel bisphenol derivatives with a membrane-targeting mechanism as potent gram-positive antibacterial agents” (Eur J Med Chem, 2024)
